# Experimental data from patent US8106092B2, “Treatment of solid cancers” (priority 2004, dated 2012).
# Columns and labels:
# [1] = test system: B16-OVA-specific CD8^+ T-cells; assay: B16-OVA-specific CD8+ T-cell responses, ex vivo ELISPOT on d12; assay type: in vivo, C57BL/6 mice; settings: d12 splenocytes, responses to SVYDFFVWL, KVPRNQDWL and SIINFEKL
# Experimental: FIGS. 13A to C are graphical representations showing synergistic effects between PEP005-mediated cure of primaries and DC therapy on the growth of secondary tumors and on CD8^+ T-cell induction. (A) On d−3 C57BL/6 mice where inoculated with 2×10^6 B16-OVA cells on the right flank (primary tumor) and 2×10^4 B16-OVA cells on the left flank (secondary tumor). On d0 and d1 the primary B16-OVA tumors, which has reach 30.4 mm^2+SD6 were cured with i.t. injections of 25 μg of PEP005 formulated in PEG400. On d4 and d11 mice received DC therapy using DC2.4 cells pulsed with SVYDFFVWL [SEQ ID NO:1], KVPRNQDWL [SEQ ID NO:4] and SIINFEKL [SEQ ID NO:2] peptides, and ovalbumin (n=12, PEP005+DC). […] Animal groups were established and treated as in (A) except that on d12 mice were sacrificed and splenocytes analyzed in an ex vivo ELISPOT assay for responses to SVYDFFVWL [SEQ ID NO:1], KVPRNQDWL [SEQ ID NO:4] and SIINFEKL [SEQ ID NO:2] […]
# To determine whether the synergistic effect of PEP005 and DC therapies seen in […] correlated with anti-cancer CD8^+ T-cell induction, a group of animals were established and treated as described for FIG. 13A except the animals were killed on d12 and their splenocytes analyzed for B16-OVA-specific CD8^+ T-cells responses. […] In the absence of treatment no significant B16-OVA-specific CD8^+ T-cell responses were detected (FIG. 13C, Controls).
# [2] = test system: B16 tumors; assay: Example 4: i.t. PEP005 on RHS primary B16 tumor with or without DC+IL-2, growth of LHS secondary tumor; assay type: in vivo, C57BL/6 mice
# From the text: It has previously been established that PEP005-mediated curing of primary tumors can lead to the reduction secondary tumors in a B16-OVA lung metastasis and a s.c. Lewis lung-OVA model. These studies were extended (i) using a model where the model antigen ovalbumin is absent, (ii) using a system where both primary and secondary tumors are established before treatment initiation and (iii) using DC therapy combined with PEP005-mediated curing of primaries, to determine whether the two treatments can improve the anti-cancer effect on the secondary tumors.
# […], three groups of C57BL/6 mice were inoculated with 1×10^5 B16 s.c. on the right hand side of the back (RHS) and 2×10^4 s.c. on the left hand side of the back (LHS). A fourth group (Group 4) received only 2×10^4 s.c. on the left hand side of the back (LHS). On d0. the groups were given the following treatments:
# PEP005 RHS: The larger RHS tumors were treated intra-tumorally with 25 μg PEP005 in 50 μl of 5% w/v DMSO in RPMI 1640 supplemented with HEPES 10 mM.
# PEP005 RHS+DC+IL-2: The large RHS tumors were treated as for Group 1 plus the animals received on d0 DC2.4 cells (i) activated with LPS (for 3 hr incubation at 37° C. using 1 μg/ml E. coli 055:B5, Sigma), (ii) sensitized with TRP-2 peptide, SVYDFFVWL [SEQ ID NO:1] (30 μg/ml 2 hr, 37° C.), (iii) irradiated (5000 rads), washed and then injected i.v. (4×10^6/mouse iv) on d0. The animals also received rhIL-2 at 5×10^4 IU given twice daily per mouse from d0 to d4 i.p.
# CONT TREAT RHS: Mock treatment group; the larger RHS tumors were treated intra-tumorally with 50 μl of 5% w/v DMSO in RPMI1640 supplemented with HEPES 10 mM.
# NO RHS: This group had no RHS tumor and received no treatment.
compound,measurement,setting,value
"C/C=C(/C)C(=O)O[C@H]1C(C)=C[C@]23C(=O)[C@@H](C=C(CO)[C@@H](O)[C@]12O)[C@H]1[C@@H](C[C@H]3C)C1(C)C [PEP005, ingenol-3-angelate]",B16-OVA-specific CD8+ T-cell responses,[1],about 120 spots/10^6 splenocytes
same,tolerability of i.t. treatment,"[2]; 25 μg PEP005 in 50 μl of 5% w/v DMSO in RPMI 1640, i.t.",not well tolerated
same,RHS (primary) tumors successfully cured,[2]; i.t. 25 μg PEP005 on d0,5/6
same,mice dying shortly after i.t. treatment,"[2]; in each of Group 1 and 2 (n=7 each), PEP005 using DMSO",one
same,survival (deaths due to growth of LHS tumor) vs NO RHS group,"[2]; mouse, in vivo",behaved essentially identically
same,growth of LHS (secondary) tumor d5 to d11 vs NO RHS,[2]; p=0.042,slower
